Source: ChEMBL document CHEMBL2069259, “Preclinical strategy to reduce clinical hepatotoxicity using in vitro bioactivation data for >200 compounds” (Chem Res Toxicol, 2012)

Tests used:
[1] = system: Liver microsomes; conditions: human, 1.5 h, 100 µM
[2] = molecular target: CYP2C19 (Homo sapiens, UniProt P33261); assay: Inhibition of human CYP2C19 assessed as ratio of IC50 in absence of NADPH to IC50 for presence of NADPH using 3-butyryl-7-methoxycoumarin as substrate after 30 mins
[3] = molecular target: T1, CYP3A4 (Homo sapiens, UniProt P08684); assay: Inhibition of human CYP3A4 assessed as ratio of IC50 in absence of NADPH to IC50 for presence of NADPH using 7-benzyloxyquinoline as substrate after 30 mins
T1 sequence (P08684 whole entry): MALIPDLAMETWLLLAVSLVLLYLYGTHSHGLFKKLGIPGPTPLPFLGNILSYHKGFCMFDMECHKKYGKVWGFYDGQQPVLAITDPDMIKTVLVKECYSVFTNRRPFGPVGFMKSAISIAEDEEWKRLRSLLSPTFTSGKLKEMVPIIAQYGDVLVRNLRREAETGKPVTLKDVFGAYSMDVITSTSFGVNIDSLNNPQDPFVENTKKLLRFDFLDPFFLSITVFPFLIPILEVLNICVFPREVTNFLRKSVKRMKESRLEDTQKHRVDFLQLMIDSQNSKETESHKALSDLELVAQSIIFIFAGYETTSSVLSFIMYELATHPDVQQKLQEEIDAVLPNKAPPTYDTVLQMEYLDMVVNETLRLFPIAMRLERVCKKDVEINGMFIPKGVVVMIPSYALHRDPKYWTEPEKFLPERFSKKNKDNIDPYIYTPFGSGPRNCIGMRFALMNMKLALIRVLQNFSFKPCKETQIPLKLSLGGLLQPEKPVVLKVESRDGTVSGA

[4] = system: Liver microsomes; assay: Metabolic stability in human liver microsomes assessed as GSH adduct formation at 100 uM after 90 mins by HPLC-MS analysis; conditions: 1.5 h
[5] = molecular target: T1, CYP3A4; assay: Inhibition of human CYP3A4 assessed as ratio of IC50 in absence of NADPH to IC50 for presence of NADPH using diethoxyfluorescein as substrate after 30 mins
[6] = system: Liver microsomes; assay: Metabolic stability in human liver microsomes assessed as high signal/noise ratio (S/N of >100) by measuring GSH adduct formation at 100 uM after 90 mins by HPLC-MS analysis; conditions: 1.5 h
[7] = system: Liver microsomes; assay: Metabolic stability in human liver microsomes assessed as low signal/noise ratio (S/N of 1 to 10) by measuring GSH adduct formation at 100 uM after 90 mins by HPLC-MS analysis; type: ADME, Microsome; conditions: 1.5 h
[8] = probe 3-butyryl-7-methoxycoumarin

CYP2C19, sequence (P33261 whole entry): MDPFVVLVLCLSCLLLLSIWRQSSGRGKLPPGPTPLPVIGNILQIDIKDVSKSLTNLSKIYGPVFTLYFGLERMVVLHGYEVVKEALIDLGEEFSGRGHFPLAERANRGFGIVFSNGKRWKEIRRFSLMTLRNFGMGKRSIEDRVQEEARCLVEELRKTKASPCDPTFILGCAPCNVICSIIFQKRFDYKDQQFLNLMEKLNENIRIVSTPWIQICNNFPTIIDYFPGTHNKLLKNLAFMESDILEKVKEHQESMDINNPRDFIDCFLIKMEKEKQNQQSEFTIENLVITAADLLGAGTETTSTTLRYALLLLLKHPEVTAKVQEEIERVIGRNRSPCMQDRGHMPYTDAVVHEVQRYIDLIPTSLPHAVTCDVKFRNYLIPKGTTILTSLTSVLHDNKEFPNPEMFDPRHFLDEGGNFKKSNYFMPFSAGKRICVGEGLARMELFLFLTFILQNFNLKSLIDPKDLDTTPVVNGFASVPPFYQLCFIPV

C#C[C@]1(O)CC[C@H]2[C@@H]3CCC4=Cc5oncc5C[C@]4(C)[C@H]3CC[C@@]21C [DANAZOL]
Stability [1]: Unstable
IC50 shift at 0.5 h [2]: < 2

CC[C@H]1OC(=O)[C@H](C)[C@@H](O[C@H]2C[C@@](C)(OC)[C@@H](O)[C@H](C)O2)[C@H](C)[C@@H](O[C@@H]2O[C@H](C)C[C@H](N(C)C)[C@H]2O)[C@](C)(OC)C[C@@H](C)C(=O)[C@H](C)[C@@H](O)[C@]1(C)O [CLARITHROMYCIN]
IC50 shift at 0.5 h ([3]; probe 7-benzyloxyquinoline): > 5
Stability [4]: Stable
IC50 shift at 0.5 h ([5]; probe diethoxyfluorescein): > 5

CC(C)[C@H]1CC[C@H](C(=O)N[C@H](Cc2ccccc2)C(=O)O)CC1 [NATEGLINIDE]
Stability [1]: Unstable

CC(C(=O)O)c1ccc(N2CC=CC2)c(Cl)c1 (stereo not drawn) [PIRPROFEN]
Stability [1]: Unstable

O=C(O)Cc1ccccc1Nc1c(Cl)cccc1Cl [DICLOFENAC]
Stability [1]: Unstable

CN(C)C(=O)Oc1ccc[n+](C)c1 [PYRIDOSTIGMINE]
Stability [6]: Unstable
IC50 shift at 0.5 h [2]: 2

C[C@]12CC[C@@H]3c4ccc(O)cc4CC[C@H]3[C@@H]1C[C@@H](O)[C@@H]2O [ESTRIOL]
Stability [1]: Unstable

COc1ccccc1OCC(O)COC(N)=O (stereo not drawn) [METHOCARBAMOL]
Stability [4]: Stable
IC50 shift at 0.5 h [2, 8]: < 2

CN(C)[C@@H]1C(O)=C(C(N)=O)C(=O)[C@@]2(O)C(O)=C3C(=O)c4c(O)cccc4[C@@](C)(O)[C@H]3C[C@@H]12 [TETRACYCLINE]
Stability [1]: Unstable

CC[C@H](C)C(=O)O[C@H]1C[C@@H](C)C=C2C=C[C@H](C)[C@H](CC[C@@H]3C[C@@H](O)CC(=O)O3)[C@H]21 [LOVASTATIN]
Stability [1]: Unstable

N[C@@H](Cc1cc(I)c(Oc2ccc(O)c(I)c2)c(I)c1)C(=O)O [LIOTHYRONINE]
Stability [7]: Unstable

COc1ncnc(NS(=O)(=O)c2ccc(N)cc2)c1OC [SULFADOXINE]
Stability [1]: Unstable

Cc1c(C)c2c(c(C)c1O)CCC(C)(COc1ccc(CC3SC(=O)NC3=O)cc1)O2 (stereo not drawn) [TROGLITAZONE]
Stability [1]: Unstable
IC50 shift at 0.5 h [5]: 2

C[C@@H]1[C@H](O)[C@@H](C)/C=C/C=C/C=C/C=C/C=C/C=C/C=C/[C@H](O[C@@H]2O[C@H](C)[C@@H](O)[C@H](N)[C@@H]2O)C[C@@H]2O[C@](O)(C[C@@H](O)C[C@@H](O)[C@H](O)CC[C@@H](O)C[C@@H](O)CC(=O)O[C@H]1C)C[C@H](O)[C@H]2C(=O)O [AMPHOTERICIN B]
Stability [4]: Stable
IC50 shift at 0.5 h [2, 8]: < 2

O=P1(N(CCCl)CCCl)NCCCO1 (stereo not drawn) [CYCLOPHOSPHAMIDE ANHYDROUS]
Stability [1]: Unstable

Cc1ccnc2c1NC(=O)c1cccnc1N2C1CC1 [NEVIRAPINE]
Stability [4]: Stable
IC50 shift at 0.5 h ([5]; probe diethoxyfluorescein): 2

CC(=O)N1CCN(c2ccc(OCC3COC(Cn4ccnc4)(c4ccc(Cl)cc4Cl)O3)cc2)CC1 (stereo not drawn) [KETOCONAZOLE]
Stability [7]: Unstable

C[C@H]1[C@H](c2ccccc2)OCCN1C [PHENDIMETRAZINE]
Stability [7]: Unstable

C#C[C@]1(O)CC[C@H]2[C@@H]3CCc4cc(O)ccc4[C@H]3CC[C@@]21C [ETHINYL ESTRADIOL]
Stability [6]: Unstable
IC50 shift at 0.5 h ([3]; probe 7-benzyloxyquinoline): 2
IC50 shift at 0.5 h ([5]; probe diethoxyfluorescein): 2

O=c1ccc2ccccc2o1 [COUMARIN]
Stability [1]: Unstable

COc1cccc2c1C(=O)c1c(O)c3c(c(O)c1C2=O)C[C@@](O)(C(=O)CO)C[C@@H]3O[C@H]1C[C@H](N)[C@H](O)[C@H](C)O1 [DOXORUBICIN]
Stability [1]: Unstable
IC50 shift at 0.5 h [3]: > 5
IC50 shift at 0.5 h [5]: 2

COc1cc(NS(C)(=O)=O)ccc1Nc1c2ccccc2nc2ccccc12 [AMSACRINE]
Stability [6]: Unstable

O=NN(CCCl)C(=O)NCCCl [CARMUSTINE]
Stability [1]: Unstable

Cc1cn([C@H]2C=C[C@@H](CO)O2)c(=O)[nH]c1=O [STAVUDINE]
Stability [1]: Unstable

CN(C)c1ccc(O)c2c1C[C@H]1C[C@H]3[C@H](N(C)C)C(O)=C(C(N)=O)C(=O)[C@@]3(O)C(O)=C1C2=O [MINOCYCLINE]
Stability [1]: Unstable

CN1CCC[C@@H]1CCO[C@](C)(c1ccccc1)c1ccc(Cl)cc1 [CLEMASTINE]
IC50 shift at 0.5 h [3]: > 5
Stability [4]: Stable
IC50 shift at 0.5 h [2]: < 2
IC50 shift at 0.5 h [5]: 2

CC(=O)Oc1ccccc1C(=O)O [ASPIRIN]
Stability [4]: Stable
IC50 shift at 0.5 h [2]: < 2

CCc1ccc(CCOc2ccc(CC3SC(=O)NC3=O)cc2)nc1 (stereo not drawn) [PIOGLITAZONE]
Stability [1]: Unstable

CS(=O)(=O)OCCCCOS(C)(=O)=O [BUSULFAN]
Stability [6]: Unstable

CN(C)/N=N/c1[nH]cnc1C(N)=O [DACARBAZINE]
Stability [6]: Unstable

O=C(O)c1cc(/N=N/c2ccc(S(=O)(=O)Nc3ccccn3)cc2)ccc1O [SULFASALAZINE]
Stability [4]: Stable
IC50 shift at 0.5 h [2, 8]: < 2

CCC(C)(C)C(=O)O[C@H]1C[C@@H](C)C=C2C=C[C@H](C)[C@H](CC[C@@H]3C[C@@H](O)CC(=O)O3)[C@H]21 [SIMVASTATIN]
Stability [6]: Unstable

COc1cc(C(=O)NS(=O)(=O)c2ccccc2C)ccc1Cc1cn(C)c2ccc(NC(=O)OC3CCCC3)cc12 [ZAFIRLUKAST]
IC50 shift at 0.5 h ([3]; probe 7-benzyloxyquinoline): 2
IC50 shift at 0.5 h ([5]; probe diethoxyfluorescein): > 5

COc1ccc2[nH]c([S+]([O-])Cc3ncc(C)c(OC)c3C)nc2c1 (stereo not drawn) [OMEPRAZOLE]
Stability [6]: Unstable
IC50 shift at 0.5 h [2]: < 2
IC50 shift at 0.5 h [5]: 2

COC(=O)C1=C(C)NC(C)=C(C(=O)OCC(C)C)C1c1ccccc1[N+](=O)[O-] (stereo not drawn) [NISOLDIPINE]
Stability [1]: Unstable

CN(C)CCC=C1c2ccccc2CCc2ccccc21 [AMITRIPTYLINE]
Stability [6]: Unstable
IC50 shift at 0.5 h [2, 8]: < 2

CCCc1cc(=O)[nH]c(=S)[nH]1 [PROPYLTHIOURACIL]
Stability [6]: Unstable
IC50 shift at 0.5 h [3]: > 5
IC50 shift at 0.5 h [5]: > 5

Cc1cccc(C)c1NC(=O)C1CCCCN1C (stereo not drawn) [MEPIVACAINE]
IC50 shift at 0.5 h ([3]; probe 7-benzyloxyquinoline): 2
Stability [4]: Stable
IC50 shift at 0.5 h ([5]; probe diethoxyfluorescein): 2

Cc1cccc(CN2CCN(C(c3ccccc3)c3ccc(Cl)cc3)CC2)c1 (stereo not drawn) [MECLIZINE]
IC50 shift at 0.5 h ([3]; probe 7-benzyloxyquinoline): > 5
Stability [4]: Stable
IC50 shift at 0.5 h [2, 8]: > 5
IC50 shift at 0.5 h ([5]; probe diethoxyfluorescein): 2

C#CCN(C)[C@H](C)Cc1ccccc1 [SELEGILINE]
Stability [6]: Unstable

Sc1ncnc2nc[nH]c12 [MERCAPTOPURINE ANHYDROUS]
Stability [6]: Unstable

NNc1nncc2ccccc12 [HYDRALAZINE]
Stability [1]: Unstable

NC(=O)N1c2ccccc2C=Cc2ccccc21 [CARBAMAZEPINE]
Stability [6]: Unstable

C#C[C@]1(O)CC[C@H]2[C@@H]3CCc4cc(OC)ccc4[C@H]3CC[C@@]21C [MESTRANOL]
Stability [1]: Unstable
IC50 shift at 0.5 h ([3]; probe 7-benzyloxyquinoline): > 5
IC50 shift at 0.5 h ([5]; probe diethoxyfluorescein): > 5

Cc1coc2c1CCC(C)C2 (stereo not drawn) [MENTHOFURAN]
IC50 shift at 0.5 h [2, 8]: < 2

CCCCC1C(=O)N(c2ccccc2)N(c2ccc(O)cc2)C1=O (stereo not drawn) [OXYPHENBUTAZONE ANHYDROUS]
Stability [6]: Unstable

C=C[C@H]1C[N@@]2CC[C@H]1C[C@@H]2[C@@H](O)c1ccnc2ccc(OC)cc12 [QUINIDINE]
Stability [6]: Unstable

CN(CCOc1ccc(NS(C)(=O)=O)cc1)CCc1ccc(NS(C)(=O)=O)cc1 [DOFETILIDE]
Stability [1]: Unstable

CO[C@@]12[C@H](COC(N)=O)C3=C(C(=O)C(C)=C(N)C3=O)N1C[C@@H]1N[C@@H]12 [MITOMYCIN]
Stability [6]: Unstable

C[C@]12CC[C@@H]3c4ccc(O)cc4CC[C@H]3[C@@H]1CC[C@@H]2O [ESTRADIOL]
Stability [6]: Unstable
IC50 shift at 0.5 h ([5]; probe diethoxyfluorescein): < 2

CC1=C(CC(=O)O)c2cc(F)ccc2/C1=C\c1ccc([S+](C)[O-])cc1 (stereo not drawn)
Stability [1]: Unstable

COc1cc([C@@H]2c3cc4c(cc3[C@@H](O[C@@H]3O[C@@H]5CO[C@@H](C)O[C@H]5[C@H](O)[C@H]3O)[C@H]3COC(=O)[C@H]23)OCO4)cc(OC)c1O [ETOPOSIDE]
Stability [6]: Unstable

O=C1CCc2cc(OCCCCc3nnnn3C3CCCCC3)ccc2N1 [CILOSTAZOL]
IC50 shift at 0.5 h [3]: 2
Stability [4]: Stable
IC50 shift at 0.5 h [5]: 2

Nc1ccc(C(=O)O)c(O)c1 [AMINOSALICYLIC ACID]
Stability [1]: Unstable

CCCCC1C(=O)N(c2ccccc2)N(c2ccccc2)C1=O [PHENYLBUTAZONE]
Stability [6]: Unstable

CC(C)NNC(=O)c1ccncc1 [IPRONIAZID]
Stability [4]: Stable
IC50 shift at 0.5 h ([5]; probe diethoxyfluorescein): > 5

C[C@@H](O)[C@H]1C(=O)N2C(C(=O)O)=C(S[C@@H]3CN[C@H](C(=O)N(C)C)C3)[C@H](C)[C@H]12 [MEROPENEM]
Stability [6]: Unstable

C[C@H]1[C@H](NC(=O)/C(=N\OC(C)(C)C(=O)O)c2csc(N)n2)C(=O)N1S(=O)(=O)O [AZTREONAM]
Stability [6]: Unstable

CO[C@H]1/C=C/O[C@@]2(C)Oc3c(C)c(O)c4c(O)c(c(/C=N/N5CCN(C)CC5)c(O)c4c3C2=O)NC(=O)/C(C)=C\C=C\[C@H](C)[C@H](O)[C@@H](C)[C@@H](O)[C@@H](C)[C@H](OC(C)=O)[C@@H]1C [RIFAMPIN]
Stability [6]: Unstable

Cn1cnc([N+](=O)[O-])c1Sc1ncnc2nc[nH]c12 [AZATHIOPRINE]
Stability [6]: Unstable

O=C(O)[C@H]1/C(=C/CO)O[C@@H]2CC(=O)N21 [CLAVULANIC ACID]
Stability [6]: Unstable

CO/N=C(\C(=O)N[C@@H]1C(=O)N2C(C(=O)O)=C(CSc3nc(=O)c(=O)[nH]n3C)CS[C@H]12)c1csc(N)n1 [CEFTRIAXONE]
Stability [6]: Unstable

CNC1(C)C2CCC(C2)C1(C)C (stereo not drawn) [MECAMYLAMINE]
Stability [4]: Stable
IC50 shift at 0.5 h [2]: < 2
